In US7247705B2, “Proteins having glucose transporter activity” (Takeda Pharmaceutical Company Limited, priority 2000, dated 2007):

What was measured:
Assay type in all cases: cell-based
human SGLT homolog [1] = target: T1, human SGLT homolog (Homo sapiens, UniProt Q2M3M2, I269M); assay: α-methyl glucose uptake in CHO cell expressing the SGLT homolog; details: CHO cells, NaCl + 10 μM or 100 μM Phlorizin, one-hour incubation, FIG. 3
T1 construct: expressed in transfected cells
T1 sequence (Q2M3M2 8-681 I269M): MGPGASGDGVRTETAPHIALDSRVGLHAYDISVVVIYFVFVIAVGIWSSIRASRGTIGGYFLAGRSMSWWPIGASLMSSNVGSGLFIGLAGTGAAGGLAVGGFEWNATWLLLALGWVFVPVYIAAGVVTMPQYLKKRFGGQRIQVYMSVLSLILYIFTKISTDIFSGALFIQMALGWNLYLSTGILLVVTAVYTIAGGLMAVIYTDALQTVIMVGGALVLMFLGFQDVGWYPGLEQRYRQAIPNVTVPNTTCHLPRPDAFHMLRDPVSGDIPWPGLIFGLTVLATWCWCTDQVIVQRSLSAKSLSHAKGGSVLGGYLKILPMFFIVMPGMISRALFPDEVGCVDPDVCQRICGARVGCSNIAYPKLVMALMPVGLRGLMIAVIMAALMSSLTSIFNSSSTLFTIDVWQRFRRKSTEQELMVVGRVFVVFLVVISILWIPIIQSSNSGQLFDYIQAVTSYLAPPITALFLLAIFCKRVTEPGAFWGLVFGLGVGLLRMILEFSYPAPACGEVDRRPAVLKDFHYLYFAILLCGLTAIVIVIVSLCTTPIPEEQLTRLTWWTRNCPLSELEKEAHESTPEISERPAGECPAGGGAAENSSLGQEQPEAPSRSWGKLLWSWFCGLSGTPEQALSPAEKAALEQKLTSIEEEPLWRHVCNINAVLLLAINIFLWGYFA
Procedure: Each cDNA of human SGLT1 (NCBI Accession NM_000343) and SGLT2 (NCBI Accession NM_003041) was amplified by PCR from Clontech MTC panel kidney cDNA library, and subcloned into the expression vector for animal cells, pME18S between EcoRI and SpeI sites to prepare pME18S-hSGLT1 and pME18S-hSGLT2. CHO cells (1×10^6 cells) were co-transfected with each 5 μg of plasmids pME18S, pMEI 8S-SGLT homolog, pMEI 8S-hSGLT1, and pME18S-hSGLT2, and the expression vector for animal cells, pRSVneo […] according to the LipofectAMINE PLUS method (GIBCOBRL). These cells were cultured in DMEM containing G418 (500 μg/ml) and 10% FBS for 2 weeks to select the drug-resistant clones.
Total RNAs were extracted from respective G418-resistant CHO cells using RNAeasy Mini Kit (Quiagen). The expression of the SGLT homolog, hSGLT1 and hSGLT2 was quantified using TaqMan Gold RT-PCR Kit (PE Biosystems) according to the TaqMan PCR method to select CHO cells expressing each gene.
Experimental incorporation of α-methyl glucose into the CHO cell expressing the SGLT homolog, the CHO cell expressing hSGLT1, the CHO cell expressing hSGLT2, and the CHO cell having pME18S was carried out according to the method described in Am. J. Physiol. 270:G833-G843 (1996) and J. Clin. Invest. 93:397-404, 1994. […] The radioactivity of ^14C incorporated into the cells was counted with 100 μl of a liquid scintillator added per well.

mouse SGLT homolog = target: T2, mouse SGLT homolog (Mus musculus, UniProt Q8VDT1); assay: α-methyl glucose uptake in COS7 cell expressing the mouse SGLT homolog; details: COS7 cells, NaCl + 100 μM or 1 mM phlorizin, one-hour incubation, FIG. 6
T2 construct: expressed in transfected cells; host or cells: COS7 cells, transient, FuGENE6
T2 sequence (Q8VDT1 8-685): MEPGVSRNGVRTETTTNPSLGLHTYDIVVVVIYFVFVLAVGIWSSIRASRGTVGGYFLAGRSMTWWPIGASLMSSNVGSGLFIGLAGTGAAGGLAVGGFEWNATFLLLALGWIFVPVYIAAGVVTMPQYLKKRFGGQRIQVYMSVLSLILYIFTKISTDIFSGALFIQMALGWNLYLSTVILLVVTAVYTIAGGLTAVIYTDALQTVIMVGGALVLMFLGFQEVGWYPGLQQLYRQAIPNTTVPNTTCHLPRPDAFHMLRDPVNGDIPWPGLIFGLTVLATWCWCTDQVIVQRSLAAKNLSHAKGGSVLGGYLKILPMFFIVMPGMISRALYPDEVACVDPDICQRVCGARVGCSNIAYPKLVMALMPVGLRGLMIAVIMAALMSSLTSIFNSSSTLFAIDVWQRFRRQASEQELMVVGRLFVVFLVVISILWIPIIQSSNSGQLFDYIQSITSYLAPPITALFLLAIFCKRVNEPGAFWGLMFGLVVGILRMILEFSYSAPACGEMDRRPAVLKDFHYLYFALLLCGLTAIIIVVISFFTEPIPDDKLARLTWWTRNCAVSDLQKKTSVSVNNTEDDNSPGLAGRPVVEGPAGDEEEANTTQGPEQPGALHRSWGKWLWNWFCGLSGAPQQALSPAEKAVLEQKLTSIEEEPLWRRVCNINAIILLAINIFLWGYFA
Procedure: (§1) The cDNA of human SGLT1 (NCBI Accession NM_000343) was amplified by PCR from Clontech MTC panel kidney cDNA library, and subcloned into the expression vector for animal cells, pME18S between EcoRI and SpeI sites to prepare pME18S-hSGLT1. COS7 cells (5×10^5 cells) were transfected with each 1 μg of plasmids pME18S, pME18S-hSGLT1, and pME18S-mouse-SGLT-homolog according to the FuGENE6 method (Roche).
(§2) Experimental incorporation of α-methyl glucose into the COS7 cell having pMEI 8S, the COS7 cell expressing hSGLT1, and the COS7 cell expressing the mouse SGLT homolog was carried out according to the method described in Am. J. Physiol. 270:G833-G843 (1996) and J. Clin. Invest. 93:397-404,1994. These cells were plated on a 96-well plate in a cell density of 3×10^4 cells/well and in a volume of 100 μl of DMEM containing 10% FBS per well, and cultured overnight at 37° C. The cells were washed 3 times with 150 μl of a buffer solution (125 mM KCl, 1.2 mM KH2PO4, 2.5 mM CaCl2, 1.2 mM MgSO4, 4 mM Glutamine, 10 mM HEPES (pH 7.2), 0.1 mg/ml BSA), and cultured for an hour in the same buffer solution to remove the rest of glucose. […] The radioactivity of ^14C incorporated into the cells was counted with 100 μl of a liquid scintillator added per well.

rat SGLT homolog = assay: α-methyl glucose uptake in COS7 cell expressing the rat SGLT homolog; details: COS7 cells, NaCl + 100 μM or 1 mM phlorizin, one-hour incubation, FIG. 9
Procedure: as §1, with “pME18S-rat-SGLT-homolog” for “pME18S-mouse-SGLT-homolog”
as §2, with “pME18S,” for “pMEI 8S,”, “rat” for “mouse”, “93:397-404, 1994.” for “93:397-404,1994.”

human SGLT homolog [2] = target: T1, human SGLT homolog; assay: α-methyl glucose uptake in COS7 cells carrying pME18S-human-SGLT-homolog (pTB2193); details: NaCl + 100 μM or 1 mM phlorizin, one-hour incubation, FIG. 12
Procedure: Each 1 μg of the expression vectors for animal cells: pME18S, pME18S-hSGLT2, pME18S-human-SGLT-homolog (pTB2193), pME18S-human-SGLT-homolog-SNP-C1 (pTB2251), pME18S-human-SGLT-homolog-SNP-C2 (pTB2252) and pME18S-human-SGLT-homolog-SNP-C3 (pTB2253), and 3 μl of FuGENE 6 (Roche) were added to Opti-MEM (Gibco-BRL) 100 μl for 15 min at room temperature. These mixtures were then added to COS7 cells (1×10^6 cells/1 ml of DMEM containing 10% FBS/well in 6-well plate) so that each gene was introduced into the cells.
Experimental incorporation of α-methyl glucose into the COS7 cells carrying pME 18S, pME18S-hSGLT2, pME 18S-human-SGLT-homolog (pTB2193), pME18S-human-SGLT-homolog-SNP-C 1 (pTB2251), pME18S-human-SGLT-homolog-SNP-C2 (pTB2252), and pME18S-human-SGLT-homolog-SNP-C3 (pTB2253) was carried out according to the method described in Am. J. Physiol. 270:G833-G843 (1996) and J. Clin. Invest. 93:397-404 (1994).
These gene-transfected cells were cultured for a day, and then plated on a 96-well plate in a cell density of 3×10^4 cells/well and in a volume of 100 μl of DMEM containing 10% FBS per well, and further cultured overnight at 37° C. […] The radioactivity of ^14C incorporated into the cells was counted with 100 μl of a liquid scintillator added per well.

O=C(CCc1ccc(O)cc1)c1c(O)cc(O)cc1O[C@@H]1O[C@H](CO)[C@@H](O)[C@H](O)[C@H]1O [phlorizin]
inhibited: inhibition of Na-dependent α-methyl glucose uptake activity (human SGLT homolog [1]) | inhibition of Na+-dependent α-methyl glucose uptake activity (mouse SGLT homolog) | inhibition of Na+-dependent α-methyl glucose uptake activity (rat SGLT homolog) | inhibition of NaCl-dependent glucose uptake activity (human SGLT homolog [2])
